Assay results: DBAASP
≈ marks a conversion by molar mass, not a printed value. Where “and” joins values, the source holds several entries; their conditions need not be identical. Equal entries are not always repeated.

Assays:
Assay in all cases: ≥ marks a high value that may be exact or a test limit, other limits are often not marked, values filed in µg/mL are converted to µM
[1] = tested on: Escherichia coli
[2] = tested on: Bacillus cereus
[3] = tested on: Pseudomonas aeruginosa
[4] = tested on: Staphylococcus aureus
[5] = tested on: Pseudomonas aeruginosa ATCC 27853
[6] = tested on: Staphylococcus epidermidis ATCC 12228
[7] = tested on: Staphylococcus aureus ATCC 25923
[8] = tested on: Escherichia coli ATCC 25922

| Structure (SMILES) | MIC [1] | MIC [3] [µM] | MIC [4] [µM] | also measured |
| --- | --- | --- | --- | --- |
| CC[C@H](C)[C@H](NC(=O)[C@H](CCCCN)NC(=O)[C@H](C)NC(=O)CNC(=O)[C@@H](NC(=O)[C@H](CCCCN)NC(=O)[C@@H](NC(=O)[C@H](CCCCN)NC(=O)[C@H](C)NC(=O)CNC(=O)[C@H](Cc1c[nH]c2ccccc12)NC(=O)[C@H](CCCCN)NC(=O)[C@@H](NC(=O)[C@H](CCCCN)NC(=O)[C@H](C)NC(=O)CNC(=O)[C@@H](NC(=O)[C@@H](N)CCCCN)[C@@H](C)CC)[C@@H](C)CC)[C@@H](C)CC)[C@@H](C)CC)C(N)=O [KIGAKIKWGAKIKIGAKI] | 4.16 µM (≈ 8 µg/mL) | 4.16 (≈ 8 µg/mL) | 4.16 (≈ 8 µg/mL) |  |
| CC[C@H](C)[C@H](NC(=O)[C@H](C)NC(=O)CNC(=O)[C@H](CCCCN)NC(=O)[C@@H](NC(=O)[C@H](CCCCN)NC(=O)[C@@H](NC(=O)[C@H](C)NC(=O)CNC(=O)[C@H](CCCCN)NC(=O)[C@H](Cc1c[nH]c2ccccc12)NC(=O)[C@H](CCCCN)NC(=O)[C@@H](NC(=O)[C@H](C)NC(=O)CNC(=O)[C@H](CCCCN)NC(=O)[C@@H](NC(=O)[C@@H](N)CCCCN)[C@@H](C)CC)[C@@H](C)CC)[C@@H](C)CC)[C@@H](C)CC)C(N)=O [KIKGAIKWKGAIKIKGAI] | 4.16 µM (≈ 8 µg/mL) | 8.32 (≈ 16 µg/mL) | 8.32 (≈ 16 µg/mL) |  |
| CC[C@H](C)[C@H](NC(=O)[C@H](C)NC(=O)[C@H](CCCCN)NC(=O)[C@H](CC(C)C)NC(=O)[C@H](C)NC(=O)[C@@H](NC(=O)[C@H](Cc1cnc[nH]1)NC(=O)[C@H](C)NC(=O)[C@@H](NC(=O)[C@@H](NC(=O)[C@H](CCCCN)NC(=O)[C@H](CCCCN)NC(=O)[C@H](C)NC(=O)[C@H](CO)NC(=O)[C@H](CCCCN)NC(=O)[C@H](Cc1ccccc1)NC(=O)[C@@H](NC(=O)[C@H](CCCCN)NC(=O)[C@H](C)NC(=O)[C@H](Cc1ccccc1)NC(=O)[C@H](CO)NC(=O)[C@H](CCCCN)NC(=O)[C@H](Cc1c[nH]c2ccccc12)NC(=O)[C@H](CCCCN)NC(C)=O)[C@@H](C)O)[C@@H](C)O)C(C)C)[C@@H](C)O)C(=O)N[C@@H](CO)C(=O)N[C@@H](CO)C(N)=O [KWKSFAKTFKSAKKTVAHTALKAISS] |  |  |  | MIC [5]: 125 µM (≈ 363 µg/mL); MIC [6]: 125 µM (≈ 363 µg/mL); MIC [7]: 125 µM (≈ 363 µg/mL); MIC [8]: 125 µM (≈ 363 µg/mL) |
| CC[C@H](C)[C@H](NC(=O)[C@H](Cc1c[nH]c2ccccc12)NC(=O)[C@H](CCCN=C(N)N)NC(=O)[C@H](CCC(N)=O)NC(=O)[C@@H](NC(=O)[C@H](Cc1c[nH]c2ccccc12)NC(=O)[C@H](CCCN=C(N)N)NC(=O)[C@@H](N)CCCN=C(N)N)C(C)C)C(=O)N[C@@H](CCCN=C(N)N)C(=O)N[C@@H](CCCN=C(N)N)C(=O)N[C@@H](Cc1c[nH]c2ccccc12)C(=O)N[C@@H](CCCN=C(N)N)C(=O)N[C@@H](CCCCN)C(=O)N[C@@H](Cc1c[nH]c2ccccc12)C(=O)N[C@H](C(=O)O)C(C)C [RRWVQRWIRRWRKWV] |  | 20 (≈ 45.4 µg/mL) | 20 (≈ 45.4 µg/mL) |  |
| CC[C@H](C)[C@H](NC(=O)CNC(=O)[C@H](CC(C)C)NC(=O)[C@@H](NC(=O)[C@H](Cc1ccc(O)cc1)NC(=O)[C@@H](NC(=O)[C@H](CO)NC(=O)[C@@H](NC(=O)[C@@H]1CCCN1C(=O)[C@@H](NC(=O)[C@@H](N)CO)C(C)C)[C@@H](C)O)C(C)C)[C@@H](C)O)C(=O)N[C@@H](CCCCN)C(=O)N[C@H](C(=O)N[C@@H](CC(C)C)C(=O)N[C@@H](Cc1c[nH]c2ccccc12)C(=O)N[C@@H](CO)C(=O)N[C@@H](C)C(=O)N[C@@H](Cc1ccc(O)cc1)C(=O)N[C@@H](CCCCN)C(=O)N[C@@H](Cc1cnc[nH]1)C(=O)O)[C@@H](C)CC [SVPTSVYTLGIKILWSAYKH] |  |  |  | MIC [6]: 50 µM (≈ 113 µg/mL) |
| CC(C)C[C@H](NC(=O)[C@H](Cc1ccc(O)cc1)NC(=O)[C@H](Cc1ccc(O)cc1)NC(=O)CNC(=O)[C@H](Cc1c[nH]c2ccccc12)NC(=O)[C@@H](N)CO)C(=O)NCC(=O)O [SWGYYLG] |  |  |  | MIC [6]: > 50 µM |
| CC(C)C[C@H](NC(=O)[C@H](Cc1ccc(O)cc1)NC(=O)[C@H](Cc1ccc(O)cc1)NC(=O)CNC(=O)[C@H](Cc1c[nH]c2ccccc12)NC(=O)[C@@H](N)CO)C(=O)NCC(=O)N[C@@H](CCCCN)C(=O)N[C@@H](CCCCN)C(=O)N[C@@H](C)C(=O)N[C@@H](CCCN=C(N)N)C(=O)N[C@@H](Cc1c[nH]c2ccccc12)C(=O)N[C@@H](CC(N)=O)C(=O)N[C@@H](CC(C)C)C(=O)N[C@@H](CCCCN)C(=O)N[C@@H](Cc1cnc[nH]1)C(=O)N1CCC[C@H]1C(=O)N[C@@H](Cc1ccc(O)cc1)C(=O)N[C@H](C(=O)N[C@@H](CCC(N)=O)C(=O)N[C@@H](Cc1ccccc1)C(=O)O)C(C)C [SWGYYLGKKARWNLKHPYVQF] |  |  |  | MIC [6]: > 50 µM |
| CC[C@H](C)[C@H](NC(=O)[C@H](C)NC(=O)CNC(=O)[C@@H](NC(=O)[C@H](CCCCN)NC(=O)[C@H](CCCCN)NC(=O)[C@@H](NC(=O)[C@H](C)NC(=O)CNC(=O)[C@H](Cc1c[nH]c2ccccc12)NC(=O)[C@H](CCCCN)NC(=O)[C@H](CCCCN)NC(=O)[C@@H](NC(=O)[C@H](C)NC(=O)CNC(=O)[C@@H](NC(=O)[C@H](CCCCN)NC(=O)[C@@H](N)CCCCN)[C@@H](C)CC)[C@@H](C)CC)[C@@H](C)CC)[C@@H](C)CC)C(N)=O [KKIGAIKKWGAIKKIGAI] | 66.5 µM (≈ 128 µg/mL) | 66.5 (≈ 128 µg/mL) | > 133 |  |

More lines, main results first:

| MIC [1] | MIC [3] [µM] | MIC [4] [µM] | Structure (SMILES) | also measured |
| --- | --- | --- | --- | --- |
| > 130 µM |  |  | CC[C@H](C)[C@H](NC(=O)[C@H](CCCCN)NC(=O)[C@@H](NC(=O)[C@H](C)NC(=O)[C@@H](NC(=O)[C@H](CC(C)C)NC(=O)[C@H](CCCCN)NC(=O)[C@H](C)NC(=O)[C@@H](NC(=O)[C@@H](NC(=O)CNC(=O)[C@@H](NC(=O)[C@H](CC(C)C)NC(=O)[C@@H](N)[C@@H](C)O)C(C)C)C(C)C)C(C)C)C(C)C)[C@@H](C)O)C(=O)NCC(=O)N[C@@H](CO)C(=O)N[C@@H](CO)C(=O)N1CCC[C@H]1C(=O)N[C@@H](CCCN=C(N)N)C(=O)N[C@@H](C)C(=O)O [TLVGVVAKLVATKIGSSPRA] | MIC [2]: ≥ 130 µM |
| > 122 µM |  |  | CC[C@H](C)[C@H](NC(=O)[C@H](Cc1ccccc1)NC(=O)[C@H](CCCCN)NC(=O)[C@H](C)NC(=O)[C@@H](NC(=O)[C@H](CO)NC(=O)[C@H](CCCCN)NC(=O)[C@@H](N)CCSC)[C@@H](C)CC)C(=O)N[C@@H](C)C(=O)N[C@@H](CCCCN)C(=O)N[C@H](C(=O)N[C@H](C(=O)N[C@@H](C)C(=O)N[C@@H](CCCCN)C(=O)N[C@@H](CCC(N)=O)C(=O)NCC(=O)N[C@@H](C)C(=O)N[C@@H](CCCCN)C(=O)N[C@@H](CCC(N)=O)C(=O)NCC(=O)O)C(C)C)[C@@H](C)O [MKSIAKFIAKTVAKQGAKQG] | MIC [2]: ≥ 122 µM |
| > 119 µM |  |  | CC[C@H](C)[C@H](NC(=O)CNC(=O)[C@H](C)NC(=O)[C@H](Cc1ccc(O)cc1)NC(=O)[C@@H](NC(=O)[C@H](CC(C)C)NC(=O)[C@H](C)N)C(C)C)C(=O)N[C@@H](CCCCN)C(=O)N[C@@H](CCCCN)C(=O)N[C@H](C(=O)N[C@@H](C)C(=O)N[C@@H](Cc1ccccc1)C(=O)N[C@@H](CC(C)C)C(=O)N[C@@H](CCCCN)C(=O)N[C@H](C(=O)N[C@@H](CCC(N)=O)C(=O)N[C@@H](CCCCN)C(=O)N[C@@H](CS)C(=O)N[C@@H](CC(=O)O)C(=O)NCC(=O)O)C(C)C)[C@@H](C)O [ALVYAGIKKTAFLKVQKCDG] | MIC [2]: ≥ 119 µM |
| 7.3 µM and 5 µM and 2.5 µM | 86.6 (≈ 165 µg/mL) | 25.8 (≈ 49.3 µg/mL) | CC[C@H](C)[C@H](N)C(=O)N[C@@H](CC(N)=O)C(=O)N[C@@H](Cc1c[nH]c2ccccc12)C(=O)N[C@@H](CCCCN)C(=O)N[C@@H](CCCCN)C(=O)N[C@H](C(=O)N[C@@H](C)C(=O)N[C@@H](CO)C(=O)N[C@H](C(=O)NCC(=O)N[C@@H](CCCCN)C(=O)N[C@@H](CCC(=O)O)C(=O)N[C@H](C(=O)N[C@@H](CC(C)C)C(=O)N[C@@H](CCCCN)C(=O)N[C@@H](C)C(=O)N[C@@H](CC(C)C)C(N)=O)C(C)C)[C@@H](C)CC)[C@@H](C)CC [INWKKIASIGKEVLKAL] |  |
| 75 µM (≈ 184 µg/mL) | > 75 | > 75 | CSCC[C@H](NC(=O)[C@H](C)NC(=O)[C@H](CCC(=O)O)NC(=O)CNC(=O)[C@@H](NC(=O)[C@H](Cc1ccccc1)NC(=O)[C@H](C)NC(=O)[C@H](CCCCN)NC(=O)CNC(=O)[C@H](Cc1ccccc1)NC(=O)[C@H](CCCN=C(N)N)NC(=O)[C@H](CCCCN)NC(=O)[C@H](C)NC(=O)[C@H](CO)NC(=O)[C@H](Cc1cnc[nH]1)NC(=O)[C@H](CC(C)C)NC(=O)[C@H](Cc1ccccc1)NC(=O)[C@H](CCCCN)NC(=O)CNC(=O)[C@H](CC(C)C)NC(=O)CN)C(C)C)C(=O)N[C@@H](CC(N)=O)C(=O)N[C@@H](CO)C(N)=O [GLGKFLHSAKRFGKAFVGEAMNS] |  |
| > 131 µM |  |  | CC[C@H](C)[C@H](NC(=O)[C@H](CO)NC(=O)[C@H](CC(C)C)NC(=O)CNC(=O)[C@@H](NC(=O)[C@@H](NC(=O)[C@H](CCCCN)NC(=O)[C@@H]1CCCN1)C(C)C)C(C)C)C(=O)N[C@H](C(=O)N[C@H](C(=O)N[C@H](C(=O)N[C@@H](CCCCN)C(=O)N[C@@H](C)C(=O)N[C@@H](CCCCN)C(=O)N[C@H](C(=O)N[C@@H](CO)C(=O)N[C@@H](CO)C(=O)N[C@@H](C)C(=O)N[C@@H](CC(C)C)C(=O)NCC(=O)O)C(C)C)C(C)C)C(C)C)C(C)C [PKVVGLSIVVVKAKVSSALG] | MIC [2]: ≥ 131 µM |
|  | 5.16 (≈ 12.5 µg/mL) |  | CC[C@H](C)[C@H](NC(=O)[C@H](Cc1ccccc1)NC(=O)[C@H](CO)NC(=O)[C@H](CCCCN)NC(=O)[C@H](Cc1c[nH]c2ccccc12)NC(=O)[C@@H](N)CCCCN)C(=O)N[C@@H](CCCCN)C(=O)N[C@@H](CCCCN)C(=O)N[C@@H](CC(C)C)C(=O)N[C@@H](C)C(=O)N[C@@H](CO)C(=O)N[C@@H](CCCCN)C(=O)N[C@@H](Cc1ccccc1)C(=O)N[C@@H](CC(C)C)C(=O)N[C@@H](Cc1cnc[nH]1)C(=O)N[C@@H](CO)C(=O)N[C@@H](C)C(=O)N[C@@H](CCCCN)C(=O)N[C@@H](CCCCN)C(=O)N[C@@H](Cc1ccccc1)C(N)=O [KWKSFIKKLASKFLHSAKKF] |  |
